Measurements: PubChem BioAssay (NCI)
Values joined by “and” are separate entries in the source; they are usually repeats but may differ in a detail not shown here. Identical values can stand only once.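 In this assay, cells in 96-well plates receive the compound at five concentrations for 48 hours. Endpoints are linearly interpolated between the surrounding concentrations. GI50: concentration for 50% inhibition of growth. TGI is the concentration that stops growth completely.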

Columns and labels:
Experiment in all cases: DTP human tumour cell line panel, 48 h
CAKI-1 renal = system: CAKI-1 renal
COLO 205 colon = system: COLO 205 colon
HCC-2998 colon = system: HCC-2998 colon
IGROV1 ovarian = system: IGROV1 ovarian
MDA-MB-231 breast = system: MDA-MB-231 breast
MDA-MB-435 = system: MDA-MB-435
RXF 393 renal = system: RXF 393 renal
SK-MEL-2 melanoma = system: SK-MEL-2 melanoma
T-47D breast = system: T-47D breast
UACC-62 melanoma = system: UACC-62 melanoma

SMILES	GI50 (CAKI-1 renal)	TGI (CAKI-1 renal)	GI50 (COLO 205 colon)	TGI (COLO 205 colon)	GI50 (HCC-2998 colon)	TGI (HCC-2998 colon)	GI50 (IGROV1 ovarian)	TGI (IGROV1 ovarian)	GI50 (MDA-MB-231 breast)	TGI (MDA-MB-231 breast)	GI50 (MDA-MB-435)	TGI (MDA-MB-435)	GI50 (RXF 393 renal)	TGI (RXF 393 renal)	GI50 (SK-MEL-2 melanoma)	TGI (SK-MEL-2 melanoma)	GI50 (T-47D breast)	TGI (T-47D breast)	GI50 (UACC-62 melanoma)	TGI (UACC-62 melanoma)
CC(=O)[O][Hg][c]1c(C)c(C)cc(C)c1C	2.03 µM	5.4 µM	2.49 µM	6.47 µM	1.37 µM	2.72 µM	0.703 µM	2.37 µM	0.87 µM	2.33 µM	1.27 µM	2.74 µM	0.482 µM	1.24 µM	1.53 µM	3.3 µM	1.68 µM	4.79 µM	1.69 µM	4.59 µM
COc1ccc(N=N/C(C(=O)C(F)(F)F)=C(\O)c2ccc(Cl)cc2)cc1	3.97 µM	25.5 µM	11.3 µM	25.1 µM	4.01 µM	16.2 µM	9.82 µM	> 100 µM	9.11 µM	66.9 µM	2.49 µM	8.77 µM	12.3 µM	45 µM	2.78 µM	8.68 µM	5.98 µM	64.9 µM	3.91 µM	> 100 µM
CCOC(=O)c1cnc2c(C)cccc2c1Nc1ccc(C(C)=O)cc1	79 µM	> 100 µM	17.5 µM	43.4 µM	53.3 µM	> 100 µM	25.5 µM	> 100 µM	19.7 µM	> 100 µM	> 100 µM	> 100 µM	4.23 µM	63.8 µM	–	–	8.2 µM	44.9 µM	11.4 µM	> 100 µM
CC(=O)c1c(C)[nH]c(-c2nc3ccc(N4CCN(C)CC4)cc3[nH]2)c1-c1ccccc1	0.212 µM	12.8 µM	0.52 µM	17.3 µM	1.54 µM	12.8 µM	1.12 µM	14.4 µM	0.728 µM	22.8 µM	0.505 µM	12.9 µM	2.84 µM	16.1 µM	4.02 µM	22.2 µM	0.703 µM	36.1 µM	0.274 µM	12.7 µM
O=C1NC(=NCCCc2ccccc2)S/C1=C\c1ccc2ncccc2c1	5.09 µM	> 18.2 µM	6.98 µM	> 20.7 µM	8.09 µM	> 25 µM	5.49 µM	14.1 µM	8.12 µM	> 22.5 µM	5.81 µM	> 18 µM	3.89 µM	10.4 µM	4.96 µM	9.67 µM	4.73 µM	12.3 µM	4.65 µM	10.9 µM
CCCCCCCCCCCC[n+]1ccc2ccccc2c1	1.65 µM	5.06 µM	1.22 µM	2.59 µM	1.07 µM	2.32 µM	0.413 µM	1.85 µM	1.28 µM	2.85 µM	0.387 µM	1.55 µM	1.36 µM	2.88 µM	1.5 µM	3.88 µM	0.406 µM	5.26 µM	0.343 µM	1.63 µM
CO[C@H]1C[C@@H]2CC[C@@H](C)[C@@](O)(O2)C(=O)C(=O)N2CCCC[C@H]2C(=O)O[C@H]([C@H](C)C[C@@H]2CC[C@@H](OCCO)[C@H](OC)C2)CC(=O)[C@H](C)C=C(C)[C@@H](O)[C@@H](OC)C(=O)[C@H](C)C[C@H](C)/C=C/C=C/C=C1C	–	21 µM	12.3 µM	30.1 µM	4.48 µM	22.1 µM	< 0.01 µM	17 µM	11.6 µM	35.4 µM	< 0.0332 µM	22.1 µM	< 0.01 µM	–	–	21.4 µM	< 0.01 µM	21.5 µM	0.342 µM	19.9 µM
Cc1cc([N+](=O)[O-])c2ccccc2[n+]1[O-]	0.541 µM and 0.627 µM	3.92 µM and 2.35 µM	0.113 µM and 0.117 µM	0.338 µM and 0.319 µM	0.128 µM and 0.221 µM	0.375 µM and 0.664 µM	2.58 µM and 3.26 µM	11.9 µM and 10.3 µM	0.218 µM and 0.202 µM	0.755 µM and 0.72 µM	0.336 µM and 0.286 µM	1.58 µM and 1.2 µM	0.181 µM and 0.17 µM	0.455 µM and 0.512 µM	0.209 µM and 0.212 µM	0.471 µM and 0.404 µM	0.385 µM and 0.534 µM	3.23 µM and 4.89 µM	0.252 µM and 0.254 µM	0.89 µM and 0.833 µM
CC1=C(Nc2ccc(N3CCN(C)CC3)cc2)C(=O)c2cncnc2C1=O	3.27 µM	14.2 µM	15.8 µM	33.1 µM	17.4 µM	36 µM	2.24 µM	5.17 µM	2.67 µM	7.78 µM	1.87 µM	3.4 µM	5.71 µM	19.4 µM	16 µM	42 µM	1.78 µM	4.26 µM	2.38 µM	5.64 µM
CCc1nc(N)nc(N)c1-c1ccc(N2CCNCC2)cc1	–	> 100 µM	–	41.1 µM	–	> 100 µM	–	> 100 µM	–	> 100 µM	–	> 100 µM	–	> 100 µM	–	> 100 µM	–	> 100 µM	–	> 100 µM
CSc1ccc2c(c1)C(N1CCN(C)CC1)Cc1ccccc1S2 (stereo not given)	1.62 µM	13.3 µM and 3.33 µM	1.76 µM	3.74 µM and 3.29 µM	1.65 µM	25.9 µM and 3.08 µM	–	7.3 µM and 4.91 µM	1.85 µM	13.7 µM and 3.65 µM	1.78 µM	6.47 µM and 3.46 µM	1.54 µM	14 µM and 3.39 µM	1.95 µM	7.82 µM and 3.8 µM	2.19 µM	42.5 µM and 5.17 µM	1.8 µM	4.2 µM and 3.3 µM
COC(=O)CSSCc1ccc([N+](=O)[O-])cc1	–	8.09 µM	–	37.7 µM	–	41 µM	–	17.1 µM	–	46.8 µM	–	31.3 µM	–	36.2 µM	–	42.4 µM	–	51.7 µM	–	31.5 µM
COc1cc2c3c(n(C)c(=O)c2cc1OC)-c1ccc(C#N)cc1C3=O	> 100 µM	> 100 µM	> 100 µM	> 100 µM	> 100 µM	> 100 µM	30.5 µM	> 100 µM	> 100 µM	> 100 µM	> 100 µM	> 100 µM	> 100 µM	> 100 µM	> 100 µM	> 100 µM	91.9 µM	> 100 µM	> 100 µM	> 100 µM
C#CCOc1ccc2ncnc(Nc3ccc(NC(=O)C=C)cc3)c2c1	> 100 µM	> 100 µM	15.6 µM	91.5 µM	> 100 µM	> 100 µM	49.8 µM	> 100 µM	29 µM	> 100 µM	36.2 µM	> 100 µM	15.2 µM	58.8 µM	> 100 µM	> 100 µM	3.53 µM	> 100 µM	47.3 µM	> 100 µM
Cn1ncc(Cl)c1-c1cc(C(=O)N[C@H](CN)Cc2ccc(F)c(F)c2)oc1Cl	1.9 µM and 0.87 µM	14.2 µM and > 5.2 µM	0.593 µM and 0.575 µM	5.84 µM and 3.22 µM	–	6.23 µM and 2.08 µM	0.0268 µM and 0.0201 µM	3.62 µM and 1.43 µM	2.59 µM and 1.72 µM	9.87 µM and 5.76 µM	1.23 µM and 0.889 µM	10.4 µM and > 6.54 µM	0.0361 µM and 0.0338 µM	0.534 µM and 0.705 µM	2.44 µM and 1.77 µM	6.82 µM and 4.72 µM	0.0193 µM and 0.0245 µM	–	0.625 µM and 0.494 µM	3.04 µM and 2.65 µM
C=C1C(=O)OC2/C=C(/C)C(OC(C)=O)C/C=C(\C)C(OC(=O)C3(C)OC3C)C(O)C12 (stereo not given)	–	> 100 µM	–	> 100 µM	–	> 100 µM	–	> 100 µM	–	> 100 µM	–	> 100 µM	–	> 100 µM	–	> 100 µM	–	> 100 µM	–	> 100 µM
COC(=O)c1ccc(NC(=O)Oc2ccc(N(CCCl)CCCl)cc2)cc1	0.434 µM	7.36 µM	9.88 µM	> 100 µM	29.1 µM	> 100 µM	11.8 µM	59.8 µM	20.1 µM	> 100 µM	11.5 µM	> 100 µM	6.28 µM	32.3 µM	20 µM	52.5 µM	2.87 µM	50.8 µM	3.36 µM	23.5 µM
N=c1c2c(=N)n3c(nc2nc2n1-c1ccccc1Sc1ccccc1-2)sc1cc(Cl)ccc13	1.94 µM	> 100 µM	3.72 µM	32.5 µM	1.32 µM	4.97 µM	3.51 µM	35.4 µM	2.8 µM	14 µM	3.11 µM	> 100 µM	2.46 µM	9.52 µM	1.44 µM	13.9 µM	2.41 µM	9.5 µM	1.16 µM	9.44 µM
CN(C)C(=S)SCC(=O)Nc1ccccc1	–	> 100 µM	–	> 100 µM	–	> 100 µM	–	> 100 µM	–	> 100 µM	–	> 100 µM	–	> 100 µM	–	> 100 µM	–	> 100 µM	–	> 100 µM
NC(=S)c1c(N)n(C2OC(CO)C(O)C2O)c2ncnc(N)c12 (stereo not given)	0.515 µM	5.42 µM	0.186 µM	0.567 µM	0.204 µM	0.801 µM	–	–	0.333 µM	> 100 µM	0.259 µM	1.01 µM	0.237 µM	0.557 µM	0.297 µM	1.07 µM	0.238 µM	1.17 µM	0.263 µM	1.37 µM
